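Method: 48-hour compound exposure of cells in 96-well plates, five concentrations, linear interpolation of endpoints. The concentration for 50% growth inhibition is given as GI50.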 Active and inactive are the calls of the source. No stated cut-off is given here; in the data, active = GI50 up to about 1.1 µM and inactive = higher. Where a SMILES comes first, the peptide text is derived from it. Square brackets hold non-standard residues; d marks the D form. Peptide text beside a SMILES is read from it. The star is where a group is joined. * marks the point of attachment. AllylGly = C=CC[CH](N)C(=O)O; Boc = CC(C)(C)OC(=O)*; OtBu = CC(C)(C)O*
How the values were obtained:
Experiment in all cases: NCI anticancer screen, dose series, 48 h
MDA-N = test system: MDA-N
HCT-15 = test system: HCT-15
BT-549 = test system: BT-549
A549 = test system: A549
SK-MEL-2 = test system: SK-MEL-2
Malme-3M = test system: Malme-3M
NCI-H23 = test system: NCI-H23
HOP-62 = test system: HOP-62
MOLT-4 = test system: MOLT-4
SR = test system: SR
SN12C = test system: SN12C
U-251 = test system: U-251
SNB-19 = test system: SNB-19
NCI-H522 = test system: NCI-H522
SK-OV-3 = test system: SK-OV-3
CCRF-CEM = test system: CCRF-CEM
SF-295 = test system: SF-295
SK-MEL-5 = test system: SK-MEL-5
HCT-116 = test system: HCT-116
OVCAR-5 = test system: OVCAR-5

SMILES	GI50 (MDA-N)	GI50 (HCT-15)	GI50 (BT-549)	GI50 (A549)	GI50 (SK-MEL-2)	GI50 (Malme-3M)	GI50 (NCI-H23)	GI50 (HOP-62)	GI50 (MOLT-4)	GI50 (SR)	GI50 (SN12C)	GI50 (U-251)	GI50 (SNB-19)	GI50 (NCI-H522)	GI50 (SK-OV-3)	GI50 (CCRF-CEM)	GI50 (SF-295)	GI50 (SK-MEL-5)	GI50 (HCT-116)	GI50 (OVCAR-5)
O=C1c2ccccc2C(=O)N1CCc1nc(-c2ccccc2)c[nH]1	> 100 µM (inactive)	> 100 µM	> 100 µM (inactive)	> 100 µM (inactive)	> 100 µM (inactive)	24.8 µM (inactive)	> 100 µM (inactive)	> 100 µM (inactive)	> 100 µM (inactive)	> 100 µM (inactive)	> 100 µM (inactive)	> 100 µM (inactive)	> 100 µM (inactive)	> 100 µM (inactive)	> 100 µM (inactive)	> 100 µM (inactive)	> 100 µM (inactive)	> 100 µM (inactive)	> 100 µM (inactive)	> 100 µM (inactive)
CC(=O)N(C)CCc1c[nH]c2ccccc12	> 100 µM (inactive)	> 100 µM	> 100 µM (inactive)	> 100 µM (inactive)	> 100 µM (inactive)	> 100 µM (inactive)	> 100 µM (inactive)	> 100 µM (inactive)	> 100 µM (inactive)	> 100 µM (inactive)	> 100 µM (inactive)	> 100 µM (inactive)	> 100 µM (inactive)	> 100 µM (inactive)	> 100 µM (inactive)	> 100 µM (inactive)	> 100 µM (inactive)	> 100 µM (inactive)	> 100 µM (inactive)	> 100 µM (inactive)
CC(=O)OCC1OC(O[C@@H]2c3c(O)c4c(c(O)c3C3=C(NN(c5ccc([N+](=O)[O-])cc5[N+](=O)[O-])[Se]3=O)[C@@]2(C)O)C(=O)c2ccccc2C4=O)C(OC(C)=O)C(OC(C)=O)C1OC(C)=O (some centres not stated)	0.273 µM (active)	0.211 µM	0.489 µM (active)	0.314 µM (active)	0.212 µM (active)	0.157 µM (active)	0.251 µM (active)	0.189 µM (active)	0.0345 µM (active)	0.179 µM (active)	0.157 µM (active)	0.14 µM (active)	0.323 µM (active)	0.124 µM (active)	0.281 µM (active)	0.0352 µM (active)	0.21 µM (active)	0.2 µM (active)	0.141 µM (active)	0.51 µM (active)
OCC1OC(n2cnc3c(SCc4ccccc4)ncnc32)C(O)C1O (configuration not stated)	> 100 µM (inactive)	3.25 µM	16.6 µM (inactive)	26.3 µM (inactive)	96.8 µM (inactive)	> 100 µM (inactive)	4.86 µM (inactive)	> 100 µM (inactive)	0.773 µM (active)	2.9 µM (inactive)	7.5 µM (inactive)	> 100 µM (inactive)	> 100 µM (inactive)	17.5 µM (inactive)	> 89.3 µM (inactive)	0.169 µM (active)	> 74.1 µM (inactive)	> 100 µM (inactive)	5.45 µM (inactive)	> 96.2 µM (inactive)
N=C(N)SCc1cccc2c(=O)cc(-c3ccccc3)oc12	6.53 µM (inactive)	10.5 µM	13.2 µM (inactive)	7.62 µM (inactive)	5.56 µM (inactive)	10.8 µM (inactive)	5.58 µM (inactive)	10.8 µM (inactive)	2.68 µM (inactive)	4.05 µM (inactive)	6.19 µM (inactive)	7.66 µM (inactive)	23.9 µM (inactive)	3.87 µM (inactive)	12.8 µM (inactive)	3.87 µM (inactive)	11.4 µM (inactive)	11.1 µM (inactive)	4.73 µM (inactive)	16.5 µM (inactive)
Cc1ccc2c3ccc4c(c3n(C)c2c1)C(=O)C=CC4=O	4.94 µM (inactive)	4.6 µM	3.32 µM (inactive)	> 10 µM (inactive)	9.95 µM (inactive)	2.58 µM (inactive)	> 9.23 µM (inactive)	> 10 µM (inactive)	0.475 µM (active)	1.42 µM (inactive)	> 10 µM (inactive)	> 10 µM (inactive)	> 10 µM (inactive)	2.95 µM (inactive)	> 10 µM (inactive)	0.335 µM (active)	> 10 µM (inactive)	> 10 µM (inactive)	2.33 µM (inactive)	> 10 µM (inactive)
C=CCC(NC(=O)C(CC(=O)OC(C)(C)C)NC(=O)OC(C)(C)C)C(=O)OC (configuration not stated) (Boc-Asp(OtBu)-[AllylGly]-OMe; configuration not given here)	31 µM (inactive)	> 100 µM	> 100 µM (inactive)	> 100 µM (inactive)	73.3 µM (inactive)	1.84 µM (inactive)	> 94.8 µM (inactive)	> 64.1 µM (inactive)	> 49.9 µM (inactive)	37.9 µM (inactive)	> 67 µM (inactive)	> 42.9 µM (inactive)	> 100 µM (inactive)	> 100 µM (inactive)	> 100 µM (inactive)	45.8 µM (inactive)	> 100 µM (inactive)	27.6 µM (inactive)	71.1 µM (inactive)	> 100 µM (inactive)
CCOP1(=O)CC(C)=C(Cl)C(O)C1 (configuration not stated)	> 100 µM (inactive)	> 100 µM	> 100 µM (inactive)	> 100 µM (inactive)	> 100 µM (inactive)	> 100 µM (inactive)	> 100 µM (inactive)	> 100 µM (inactive)	> 100 µM (inactive)	> 100 µM (inactive)	> 100 µM (inactive)	> 100 µM (inactive)	> 100 µM (inactive)	> 100 µM (inactive)	> 100 µM (inactive)	> 100 µM (inactive)	> 100 µM (inactive)	> 100 µM (inactive)	> 100 µM (inactive)	> 100 µM (inactive)
CC12CC3(O)OC(O1)C1(COC(=O)c4ccccc4)C3CC21OC1OC(CO)C(O)C(O)C1O (configuration not stated)	> 100 µM (inactive)	> 100 µM	> 100 µM (inactive)	> 100 µM (inactive)	> 100 µM (inactive)	> 100 µM (inactive)	> 100 µM (inactive)	> 100 µM (inactive)	> 100 µM (inactive)	> 100 µM (inactive)	> 100 µM (inactive)	> 100 µM (inactive)	> 100 µM (inactive)	> 100 µM (inactive)	> 100 µM (inactive)	> 100 µM (inactive)	> 100 µM (inactive)	> 100 µM (inactive)	> 100 µM (inactive)	> 100 µM (inactive)
COc1ccc(/C=C2\OC(=O)C(Cl)=C2c2ccc(OC)cc2)cc1	> 100 µM (inactive)	> 100 µM	99.5 µM (inactive)	> 100 µM (inactive)	> 100 µM (inactive)	> 100 µM (inactive)	–	28 µM (inactive)	> 100 µM (inactive)	> 100 µM (inactive)	> 100 µM (inactive)	89.3 µM (inactive)	> 100 µM (inactive)	66.2 µM (inactive)	> 100 µM (inactive)	> 100 µM (inactive)	> 100 µM (inactive)	> 100 µM (inactive)	–	–
COC(=O)C(Cc1c[nH]c2ccccc12)NC(=O)C(Cc1c[nH]c2ccccc12)NC(=O)C(Cc1c[nH]c2ccccc12)NC(=O)C(Cc1c[nH]c2ccccc12)NC(=O)C(Cc1c[nH]c2ccccc12)NC(=O)C(Cc1c[nH]c2ccccc12)NC(=O)C(Cc1c[nH]c2ccccc12)NC(=O)C(Cc1c[nH]c2ccccc12)NC(=O)OC(C)(C)C (configuration not stated) (Boc-WWWWWWWW-OMe; configuration not given here)	39.1 µM (inactive)	> 100 µM	> 100 µM (inactive)	86.5 µM (inactive)	33.6 µM (inactive)	53.2 µM (inactive)	29 µM (inactive)	> 100 µM (inactive)	44.5 µM (inactive)	59.7 µM (inactive)	72.8 µM (inactive)	74.6 µM (inactive)	46.2 µM (inactive)	17.4 µM (inactive)	–	34.4 µM (inactive)	–	24.3 µM (inactive)	15.3 µM (inactive)	37.8 µM (inactive)
COc1cc(C2c3cc4c(cc3CC3COC(=O)N32)OCO4)cc(OC)c1OC (configuration not stated)	0.434 µM (active)	3.08 µM	6.27 µM (inactive)	3.08 µM (inactive)	6.73 µM (inactive)	2.83 µM (inactive)	–	4.12 µM (inactive)	3.67 µM (inactive)	1.57 µM (inactive)	4.73 µM (inactive)	3.79 µM (inactive)	4.26 µM (inactive)	1.57 µM (inactive)	3.03 µM (inactive)	2.56 µM (inactive)	0.729 µM (active)	1.96 µM (inactive)	2.72 µM (inactive)	> 53.1 µM (inactive)
CCOC(=O)c1nc2ccccc2nc1Oc1cc(OC)cc(OC)c1	> 100 µM (inactive)	> 100 µM	> 100 µM (inactive)	> 100 µM (inactive)	> 100 µM (inactive)	> 100 µM (inactive)	–	69.7 µM (inactive)	> 100 µM (inactive)	> 100 µM (inactive)	> 100 µM (inactive)	78.3 µM (inactive)	> 100 µM (inactive)	46.7 µM (inactive)	> 100 µM (inactive)	> 100 µM (inactive)	> 100 µM (inactive)	> 100 µM (inactive)	> 100 µM (inactive)	> 100 µM (inactive)
CN(C)Cc1cc(C(=O)/C=C/c2ccc(/C=C/C(=O)c3cc(CN(C)C)c(O)c(CN(C)C)c3)cc2)cc(CN(C)C)c1O	> 10 µM (inactive)	29.6 µM	18.6 µM (inactive)	43 µM (inactive)	20.2 µM (inactive)	34.6 µM (inactive)	18.7 µM (inactive)	26.8 µM (inactive)	12.7 µM (inactive)	22.8 µM (inactive)	28.9 µM (inactive)	15.6 µM (inactive)	> 100 µM (inactive)	10.5 µM (inactive)	–	9.57 µM (inactive)	29.2 µM (inactive)	42.9 µM (inactive)	15.2 µM (inactive)	17.4 µM (inactive)

Source: ChEMBL document CHEMBL1201862, “PubChem BioAssay data set” (2004)
